The target in assay [1] is T1, Steroid hormone receptor ERR1 (Homo sapiens) (UniProt P11474).
T1 sequence (whole entry): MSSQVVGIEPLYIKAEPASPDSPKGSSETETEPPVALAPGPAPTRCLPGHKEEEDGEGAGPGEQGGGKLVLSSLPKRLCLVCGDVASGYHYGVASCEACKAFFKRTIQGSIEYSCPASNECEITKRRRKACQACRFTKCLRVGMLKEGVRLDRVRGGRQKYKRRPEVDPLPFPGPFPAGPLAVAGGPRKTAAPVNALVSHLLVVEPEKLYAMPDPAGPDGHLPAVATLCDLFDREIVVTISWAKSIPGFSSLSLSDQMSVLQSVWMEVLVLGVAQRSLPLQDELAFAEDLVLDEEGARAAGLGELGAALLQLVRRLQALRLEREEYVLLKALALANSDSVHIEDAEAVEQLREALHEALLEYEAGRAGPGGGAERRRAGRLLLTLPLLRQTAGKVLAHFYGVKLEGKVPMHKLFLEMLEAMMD
Put plainly: Inverse agonist activity at GAL4-DNA binding domain-fused human ERRalpha ligand binding domain expressed in African green monkey CV1 cells assessed as decrease in receptor transcriptional activity at 10 uM after 45 hrs by luciferase reporter gene assay. Type of assay: cell-based.

The target of assay [2] is Estrogen receptor beta (Homo sapiens) (UniProt Q92731). Put plainly: Inverse agonist activity at human ERbeta expressed in African green monkey CV1 cells assessed as decrease in receptor transcriptional activity up to 3 uM after 45 hrs by luciferase reporter gene assay. In kind it is cell-based. For orientation: A reporter such as luciferase makes a cellular process visible.

Assay [3] addresses T2, Estrogen receptor (Homo sapiens) (UniProt P03372).
T2 sequence (whole entry): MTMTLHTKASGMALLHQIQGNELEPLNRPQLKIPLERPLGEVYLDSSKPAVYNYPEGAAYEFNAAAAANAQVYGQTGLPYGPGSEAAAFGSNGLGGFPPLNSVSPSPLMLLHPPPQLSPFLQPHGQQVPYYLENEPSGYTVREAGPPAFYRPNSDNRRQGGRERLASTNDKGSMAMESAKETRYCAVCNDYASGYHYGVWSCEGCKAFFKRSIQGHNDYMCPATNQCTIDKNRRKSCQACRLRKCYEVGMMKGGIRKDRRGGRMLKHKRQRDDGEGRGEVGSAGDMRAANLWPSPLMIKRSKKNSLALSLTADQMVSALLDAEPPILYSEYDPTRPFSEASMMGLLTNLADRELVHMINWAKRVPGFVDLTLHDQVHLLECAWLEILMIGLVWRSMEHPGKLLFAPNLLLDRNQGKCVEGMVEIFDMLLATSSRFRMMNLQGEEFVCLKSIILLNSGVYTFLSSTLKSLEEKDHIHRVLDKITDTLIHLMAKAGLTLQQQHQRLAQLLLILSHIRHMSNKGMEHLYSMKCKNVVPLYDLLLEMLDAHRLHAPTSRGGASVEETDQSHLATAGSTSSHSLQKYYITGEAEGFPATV
Description: Inverse agonist activity at human ERalpha expressed in African green monkey CV1 cells assessed as decrease in receptor transcriptional activity up to 3 uM after 45 hrs by luciferase reporter gene assay. In kind it is cell-based.

The target of assay [4] is T3, Estrogen-related receptor gamma (Mus musculus, UniProt P62509).
T3 sequence (P62509 whole entry): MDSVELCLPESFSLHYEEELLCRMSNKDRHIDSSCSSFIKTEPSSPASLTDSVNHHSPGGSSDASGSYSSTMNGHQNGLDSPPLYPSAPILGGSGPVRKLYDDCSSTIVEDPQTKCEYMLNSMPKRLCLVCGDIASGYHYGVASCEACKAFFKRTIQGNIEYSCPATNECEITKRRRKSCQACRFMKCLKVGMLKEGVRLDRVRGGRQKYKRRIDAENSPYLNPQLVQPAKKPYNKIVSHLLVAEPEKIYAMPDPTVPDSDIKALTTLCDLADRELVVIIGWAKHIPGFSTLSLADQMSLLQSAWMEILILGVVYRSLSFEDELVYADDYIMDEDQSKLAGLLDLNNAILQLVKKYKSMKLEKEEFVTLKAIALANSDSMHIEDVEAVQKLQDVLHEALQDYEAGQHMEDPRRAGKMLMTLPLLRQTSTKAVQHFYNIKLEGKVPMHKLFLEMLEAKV
Description: Inverse agonist activity at GAL4-DNA binding domain-fused mouse ERRgamma ligand binding domain expressed in African green monkey CV1 cells assessed as decrease in receptor transcriptional activity after 45 hrs by luciferase reporter gene assay

The target in assay [5] is T1, Steroid hormone receptor ERR1 (Homo sapiens). Put plainly: Inverse agonist activity at GAL4-DNA binding domain-fused human ERRalpha ligand binding domain expressed in African green monkey CV1 cells assessed as decrease in receptor transcriptional activity after 45 hrs by luciferase reporter gene assay. Type of assay: cell-based.
For assay [6], the target named is T2, Estrogen receptor (Homo sapiens). Description: Antagonist activity at human ERalpha expressed in African green monkey CV1 cells assessed as decrease in receptor transcriptional activity after 45 hrs by luciferase reporter gene assay. In kind it is cell-based.

This note sets out measurements from ChEMBL document CHEMBL3997814, “Identification of novel inverse agonists of estrogen-related receptors ERRγ and ERRβ” (Bioorg Med Chem, 2017).

The source made the active and inactive calls. The calls are words filed in the database; no cut-off is given here.

For orientation: IC50 means the point on the concentration scale where inhibition reaches its midpoint.

Sequence of Estrogen receptor beta (Homo sapiens) (Q92731 whole entry): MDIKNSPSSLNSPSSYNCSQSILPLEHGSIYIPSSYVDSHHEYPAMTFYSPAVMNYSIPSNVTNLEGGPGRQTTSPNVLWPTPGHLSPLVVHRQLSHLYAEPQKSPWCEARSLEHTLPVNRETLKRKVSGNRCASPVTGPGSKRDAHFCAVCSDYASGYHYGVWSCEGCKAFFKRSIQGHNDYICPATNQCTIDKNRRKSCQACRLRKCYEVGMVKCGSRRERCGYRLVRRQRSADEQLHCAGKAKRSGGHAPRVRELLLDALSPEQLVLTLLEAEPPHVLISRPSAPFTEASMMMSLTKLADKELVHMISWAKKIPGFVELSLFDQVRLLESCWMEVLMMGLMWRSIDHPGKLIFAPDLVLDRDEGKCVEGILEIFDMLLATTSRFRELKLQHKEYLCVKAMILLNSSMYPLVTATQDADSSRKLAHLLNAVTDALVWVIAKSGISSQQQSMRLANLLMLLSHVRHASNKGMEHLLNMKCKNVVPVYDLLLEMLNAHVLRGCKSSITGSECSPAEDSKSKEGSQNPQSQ

For the molecule `COC(=O)CC/C(=C(\c1ccc(O)cc1)c1ccc(OCCN(C)C)cc1)c1ccccc1`, the result in assay [1], in assay [2] and in assay [3] was inactive.

On to `CC(CO)C/C(=C(\c1ccc(O)cc1)c1ccc(OCCN(C)C)cc1)c1ccccc1` (stereo not given), for which the outcome in assay [1] was inactive.

As to `CC(C)C/C(=C(\c1ccc(O)cc1)c1ccc(OCCN(C)C)cc1)c1ccccc1`, 1 µM corresponded to half-maximal inhibition in assay [4] (IC50). Further, the outcome in assay [1] was inactive.

Regarding `COC(=O)C(C)C/C(=C(\c1ccc(O)cc1)c1ccc(OCCN(C)C)cc1)c1ccccc1` (stereo not given), the result in assay [1], in assay [2] and in assay [3] was inactive.

`CC/C(=C(\c1ccc(O)cc1)c1ccc(OCCN(C)C)cc1)c1ccccc1`: the outcome in assay [1] was inactive.

Regarding `CC/C(=C(/c1ccc(O)cc1)c1ccc(OCCN(C)C)cc1)c1ccccc1`, in assay [5], the result was inactive.

`CC(=O)Oc1ccc(/C(=C(\CCCO)c2ccccc2)c2ccc(OCCN(C)C)cc2)cc1`: the IC50 in assay [4] was found to be 0.3 µM. Besides, the outcome in assay [1] was inactive.

As to `CC(C)/C(=C(\c1ccc(O)cc1)c1ccc(OCCN(C)C)cc1)c1ccccc1`, in assay [1], the outcome was inactive.

On to `COC(=O)CCC(=C(c1ccc(O)cc1)c1ccc(O)cc1)c1ccccc1`, for which the result in assay [1] was inactive.

On to `CC(=O)Oc1ccc(/C(=C(\CC(C)CO)c2ccccc2)c2ccc(OCCN(C)C)cc2)cc1` (stereo not given), for which the outcome in assay [1] was inactive.

Consider `COC(=O)C(C)CC(=C(c1ccc(O)cc1)c1ccc(O)cc1)c1ccccc1` (stereo not given), for which the outcome in assay [1] was inactive.

In the case of `CC(=O)Oc1ccc(/C(=C(/c2ccccc2)C(C)C)c2ccc(OCCN(C)C)cc2)cc1`, the inhibition result in assay [6] was “Active”. For the same molecule, in assay [1], the result was inactive.

On to `CN(C)CCOc1ccc(/C(=C(/CCCO)c2ccccc2)c2ccc(O)cc2)cc1`, for which the result in assay [1] was inactive.
